“And” between values parts separate entries of the source, which are not always exact repeats. Equal values may be shown once.
System: mice (CD1 strain), CTX-injected small intestinal loops
Details: mouse, in vivo

SMILES | closed loop % inhibition
Oc1c(Br)cc(-c2cnc(COc3cccc(Cl)c3Cl)nn2)cc1Br [Compound 30, 2,6-dibromo-4-(3-((2,3-dichlorophenoxy)methyl)-1,2,4-triazin-6-yl)phenol] | 94.4%
Oc1c(Br)cc(-c2cnc(OCCc3ccccc3)nn2)cc1Br [Compound 96, 2,6-dibromo-4-(3-phenethoxy-1,2,4-triazin-6-yl)phenol] | 78.6%
Oc1c(Cl)cc(-c2cnc(C(O)(c3ccccc3)c3ccccc3)nn2)cc1Cl [Compound 36, 2,6-dichloro-4-(3-(hydroxydiphenylmethyl)-1,2,4-triazin-6-yl)phenol] | 74.9% and 62.1%
Oc1c(Cl)cc(-c2cnc(OCc3ccccc3F)nn2)cc1Cl [Compound 127, 2,6-dichloro-4-(3-(2-fluorobenzyloxy)-1,2,4-triazin-6-yl)phenol] | 70.2% and 62.7%
Oc1c(Br)cc(-c2cnc(OCc3ccc(Cl)cc3)nn2)cc1Br [Compound 20, 2,6-dibromo-4-(3-(4-chlorobenzyloxy)-1,2,4-triazin-6-yl)phenol] | 87.6%
